From paper PMC5218480 (PLoS ONE, 2017)

System: MV-4-11 cells
Test: Gene expression microarray analysis (Affymetrix PrimeView) and GSEA
Format: cell-based, human
Set-up: RFU PODN (11730768_x_at) / Fold change /veh PODN (11730768_x_at) / RFU LINC00158 (11744669_a_at) / Fold change /veh LINC00158 (11744669_a_at) / RFU DUSP10 (11751237_a_at) / Fold change /veh DUSP10 (11751237_a_at) / RFU ID3 (11757404_x_at) / Fold change /veh ID3 (11757404_x_at) / RFU PLEKHG5 (11737974_s_at) / Fold change /veh PLEKHG5 (11737974_s_at) / RFU LRRC4B (11730491_at) / Fold change /veh LRRC4B (11730491_at) / RFU GIMAP4 (11747438_a_at) / Fold change /veh GIMAP4 (11747438_a_at) / RFU KRT8 (11758183_x_at) / Fold change /veh KRT8 (11758183_x_at) / RFU CNN1 (11734310_a_at) / Fold change /veh CNN1 (11734310_a_at) / RFU VPS37D (11726825_at) / Fold change /veh VPS37D (11726825_at) / RFU C10orf10 (11716522_x_at) / Fold change /veh C10orf10 (11716522_x_at) / RFU KIR2DL2 /// KIR2DL4 /// KIR2DL5A /// KIR2DL5B /// KIR2DS1 /// KIR2DS2 /// KIR2DS3 /// KIR2DS4 /// KIR3DL3 /// KIR3DL3 /// KIR3DS1 (11738374_at) / Fold change /veh KIR2DL2 /// KIR2DL4 /// KIR2DL5A /// KIR2DL5B /// KIR2DS1 /// KIR2DS2 /// KIR2DS3 /// KIR2DS4 /// KIR3DL3 /// KIR3DL3 /// KIR3DS1 (11738374_at) / RFU C1QL1 (11718748_at) / Fold change /veh C1QL1 (11718748_at) / RFU TMPRSS4 (11747572_a_at) / Fold change /veh TMPRSS4 (11747572_a_at) / RFU HAMP (11756126_x_at) / Fold change /veh HAMP (11756126_x_at) / RFU RNFT2 (11725882_a_at) / Fold change /veh RNFT2 (11725882_a_at) / RFU NR4A2 (11747474_a_at) / Fold change /veh NR4A2 (11747474_a_at) / RFU ABCC12 (11746883_a_at) / Fold change /veh ABCC12 (11746883_a_at) / RFU TMEM136 (11760407_x_at) / Fold change /veh TMEM136 (11760407_x_at) / RFU CLDN22 /// WWC2 (11732394_at) / Fold change /veh CLDN22 /// WWC2 (11732394_at) / RFU HLA-DPB1 (11760878_x_at) / Fold change /veh HLA-DPB1 (11760878_x_at) / RFU SPINT1 (11716480_a_at) / Fold change /veh SPINT1 (11716480_a_at) / RFU GAP43 (11754022_s_at) / Fold change /veh GAP43 (11754022_s_at) / RFU A4GNT (11735810_at) / Fold change /veh A4GNT (11735810_at) / RFU PRB3 (11715151_x_at) / Fold change /veh PRB3 (11715151_x_at) / RFU TUBB4B (11761932_at) / Fold change /veh TUBB4B (11761932_at) / RFU CAPN14 (11732068_a_at) / Fold change /veh CAPN14 (11732068_a_at) / RFU TMCC2 (11721928_a_at) / Fold change /veh TMCC2 (11721928_a_at) / RFU IRGQ (11745062_a_at) / Fold change /veh IRGQ (11745062_a_at) / RFU FAM174B (11720279_a_at) / Fold change /veh FAM174B (11720279_a_at) / RFU TMPRSS4 (11748680_a_at) / Fold change /veh TMPRSS4 (11748680_a_at) / RFU FAM212B (11763350_a_at) / Fold change /veh FAM212B (11763350_a_at) / RFU PLEKHG5 (11743358_a_at) / Fold change /veh PLEKHG5 (11743358_a_at) / RFU ZSCAN30 (11745921_a_at) / Fold change /veh ZSCAN30 (11745921_a_at) / RFU CMKLR1 (11741424_a_at) / Fold change /veh CMKLR1 (11741424_a_at) / RFU LOC101060620 /// MAPK8IP1 (11723275_at) / Fold change /veh LOC101060620 /// MAPK8IP1 (11723275_at) / RFU SPTSSB (11747773_x_at) / Fold change /veh SPTSSB (11747773_x_at) / RFU PRSS12 (11739890_at) / Fold change /veh PRSS12 (11739890_at) / RFU BIN1 (11741810_x_at) / Fold change /veh BIN1 (11741810_x_at) / RFU WNT11 (11732464_a_at) / Fold change /veh WNT11 (11732464_a_at) / RFU C10orf10 (11716521_a_at) / Fold change /veh C10orf10 (11716521_a_at) / RFU C5orf56 (11738089_at) / Fold change /veh C5orf56 (11738089_at) / RFU CYB561 (11721691_x_at) / Fold change /veh CYB561 (11721691_x_at) / RFU ANKRD19P (11752326_a_at) / Fold change /veh ANKRD19P (11752326_a_at) / RFU OR2T12 /// OR2T33 /// OR2T8 (11738714_s_at) / Fold change /veh OR2T12 /// OR2T33 /// OR2T8 (11738714_s_at) / RFU VCAN (11748164_a_at) / Fold change /veh VCAN (11748164_a_at) / RFU JSRP1 (11732532_at) / Fold change /veh JSRP1 (11732532_at) / RFU KRTAP10-11 (11738290_x_at) / Fold change /veh KRTAP10-11 (11738290_x_at) / RFU MYO3A (11730013_a_at) / Fold change /veh MYO3A (11730013_a_at) / RFU EBF3 (11725865_a_at) / Fold change /veh EBF3 (11725865_a_at) / RFU CAMK2N1 (11719241_x_at) / Fold change /veh CAMK2N1 (11719241_x_at) / RFU C5orf56 (11738088_a_at) / Fold change /veh C5orf56 (11738088_a_at) / RFU OLFML3 (11715873_a_at) / Fold change /veh OLFML3 (11715873_a_at) / RFU LOC100653217 /// NTM (11731650_a_at) / Fold change /veh LOC100653217 /// NTM (11731650_a_at) / RFU MAPK11 (11762145_a_at) / Fold change /veh MAPK11 (11762145_a_at) / RFU FIZ1 (11724087_x_at) / Fold change /veh FIZ1 (11724087_x_at) / RFU OASL (11726364_x_at) / Fold change /veh OASL (11726364_x_at) / RFU SOX15 (11748057_x_at) / Fold change /veh SOX15 (11748057_x_at) / RFU CD79A (11719716_a_at) / Fold change /veh CD79A (11719716_a_at) / RFU HIST1H1D (11736915_at) / Fold change /veh HIST1H1D (11736915_at) / RFU CASKIN2 (11723855_a_at) / Fold change /veh CASKIN2 (11723855_a_at) / RFU LOC730098 (11760151_x_at) / Fold change /veh LOC730098 (11760151_x_at) / RFU OR4N2 (11742367_at) / Fold change /veh OR4N2 (11742367_at) / RFU PRRT2 (11749266_a_at) / Fold change /veh PRRT2 (11749266_a_at) / RFU SNX32 (11753110_a_at) / Fold change /veh SNX32 (11753110_a_at) / RFU CDHR5 (11726645_a_at) / Fold change /veh CDHR5 (11726645_a_at) / RFU RCAN1 (11760418_a_at) / Fold change /veh RCAN1 (11760418_a_at) / RFU FAM167A (11723789_a_at) / Fold change /veh FAM167A (11723789_a_at) / RFU FAM26E (11764081_at) / Fold change /veh FAM26E (11764081_at) / RFU ISYNA1 (11749810_s_at) / Fold change /veh ISYNA1 (11749810_s_at) / RFU ACY1 (11761880_at) / Fold change /veh ACY1 (11761880_at) / RFU 11764098_at / Fold change /veh 11764098_at / RFU SAMD14 (11745864_x_at) / Fold change /veh SAMD14 (11745864_x_at) / RFU NPB (11741838_a_at) / Fold change /veh NPB (11741838_a_at) / RFU TMPRSS6 (11731388_a_at) / Fold change /veh TMPRSS6 (11731388_a_at) / RFU KRTAP10-2 (11738614_at) / Fold change /veh KRTAP10-2 (11738614_at) / RFU ARHGAP8 /// PRR5-ARHGAP8 (11727945_x_at) / Fold change /veh ARHGAP8 /// PRR5-ARHGAP8 (11727945_x_at) / RFU KRTAP5-7 /// NADSYN1 (11734609_at) / Fold change /veh KRTAP5-7 /// NADSYN1 (11734609_at) / RFU RASL12 (11751679_a_at) / Fold change /veh RASL12 (11751679_a_at) / RFU CDKN2B (11736163_a_at) / Fold change /veh CDKN2B (11736163_a_at) / RFU PRF1 (11729649_at) / Fold change /veh PRF1 (11729649_at) / RFU, ZNF638 /// ZNF638-IT1 / Fold change vs veh, ZNF638 /// ZNF638-IT1 / RFU, PANK3 / Fold change vs veh, PANK3 / RFU, SH3YL1 / Fold change vs veh, SH3YL1 / RFU, ZEB2 / Fold change vs veh, ZEB2 / RFU, NRIP1 / Fold change vs veh, NRIP1 / RFU, PTTG1IP / Fold change vs veh, PTTG1IP / RFU, CAPN2 / Fold change vs veh, CAPN2 / RFU, MED14 / Fold change vs veh, MED14 / RFU, SNORA58 / Fold change vs veh, SNORA58 / RFU, C1orf63 / Fold change vs veh, C1orf63 / RFU, LRRFIP1 / Fold change vs veh, LRRFIP1 / RFU, NDUFAF7 / Fold change vs veh, NDUFAF7 / RFU, SLC12A2 / Fold change vs veh, SLC12A2 / RFU, IBTK / Fold change vs veh, IBTK / RFU, ESF1 / Fold change vs veh, ESF1 / Fold change vs veh, TMEM50B / RFU, TAOK1 / Fold change vs veh, TAOK1 / RFU, ACBD3 / Fold change vs veh, ACBD3 / RFU, TMA16 / Fold change vs veh, TMA16 / RFU, RWDD3 / Fold change vs veh, RWDD3 / RFU, BCAT1 / Fold change vs veh, BCAT1 / RFU, EDEM3 / Fold change vs veh, EDEM3 / RFU, TMEM33 / Fold change vs veh, TMEM33 / RFU, WDR75 / Fold change vs veh, WDR75 / RFU, AHCTF1 / Fold change vs veh, AHCTF1 / RFU, TFRC / Fold change vs veh, TFRC / RFU, ZDHHC17 / Fold change vs veh, ZDHHC17 / RFU, NOM1 / Fold change vs veh, NOM1 / RFU, ARL8B / Fold change vs veh, ARL8B / RFU, ZBTB11 / Fold change vs veh, ZBTB11 / RFU, TAMM41 / Fold change vs veh, TAMM41 / RFU, KIAA1704 /// LOC100996395 / Fold change vs veh, KIAA1704 /// LOC100996395 / RFU, ING1 / Fold change vs veh, ING1 / RFU, TRMT61B / Fold change vs veh, TRMT61B / RFU, FUBP3 / Fold change vs veh, FUBP3 / RFU, TP53 / Fold change vs veh, TP53 / RFU, TNKS2 / Fold change vs veh, TNKS2 / RFU, ZFP14 / Fold change vs veh, ZFP14 / RFU, ACTR2 / Fold change vs veh, ACTR2 / RFU, PPP3R1 / Fold change vs veh, PPP3R1 / RFU, PIK3R1 / Fold change vs veh, PIK3R1 / RFU, HNRNPA1 / Fold change vs veh, HNRNPA1 / RFU, RNF170 / Fold change vs veh, RNF170 / RFU, ZNF28 / Fold change vs veh, ZNF28 / RFU, RNGTT / Fold change vs veh, RNGTT / RFU, OGT / Fold change vs veh, OGT / RFU, BRD1 / Fold change vs veh, BRD1 / RFU, MARS / Fold change vs veh, MARS / RFU, ZNF655 / Fold change vs veh, ZNF655 / RFU, FAHD1 / Fold change vs veh, FAHD1 / RFU, BDP1 / Fold change vs veh, BDP1 / RFU, LRRCC1 / Fold change vs veh, LRRCC1 / RFU, ARID1A / Fold change vs veh, ARID1A / RFU, ZNF146 / Fold change vs veh, ZNF146 / RFU, ZNF330 / Fold change vs veh, ZNF330 / RFU, GPN3 / Fold change vs veh, GPN3 / RFU, C9orf123 / Fold change vs veh, C9orf123 / RFU, N4BP2L2 / Fold change vs veh, N4BP2L2 / RFU, ARFIP1 / Fold change vs veh, ARFIP1 / RFU, FAM179B / Fold change vs veh, FAM179B / RFU, BCL10 / Fold change vs veh, BCL10 / RFU, UHRF1BP1L / Fold change vs veh, UHRF1BP1L / RFU, BET1 / Fold change vs veh, BET1 / RFU, CNOT2 / Fold change vs veh, CNOT2 / RFU, ZNF268 / Fold change vs veh, ZNF268 / Fold change vs veh, ZNF507 / RFU, DGCR2 / Fold change vs veh, DGCR2 / RFU, WDSUB1 / Fold change vs veh, WDSUB1 / Fold change vs veh, HSP90B1 /// MIR3652 / RFU, ADSS / Fold change vs veh, ADSS / RFU, GK / Fold change vs veh, GK / RFU, ZNF148 / Fold change vs veh, ZNF148 / RFU, TAF9 / Fold change vs veh, TAF9 / RFU, SLC1A5 / Fold change vs veh, SLC1A5 / RFU, SLMO2 / Fold change vs veh, SLMO2 / RFU, ABCC4 / Fold change vs veh, ABCC4 / RFU, LOC101060439 /// RAP1B / Fold change vs veh, LOC101060439 /// RAP1B / RFU, RFX7 / Fold change vs veh, RFX7 / RFU, GTPBP10 / Fold change vs veh, GTPBP10 / RFU, CNEP1R1 / Fold change vs veh, CNEP1R1 / RFU, BIVM-ERCC5 /// ERCC5 / Fold change vs veh, BIVM-ERCC5 /// ERCC5 / RFU, ILF3 / Fold change vs veh, ILF3 / RFU 11762660_at / Fold change /veh 11762660_at / RFU VCAN (11757783_s_at) / Fold change /veh VCAN (11757783_s_at) / RFU DDX43 (11728927_at) / Fold change /veh DDX43 (11728927_at) / RFU KRT8 (11758188_x_at) / Fold change /veh KRT8 (11758188_x_at) / RFU NKD1 (11759106_at) / Fold change /veh NKD1 (11759106_at) / RFU SRD5A1 (11742802_a_at) / Fold change /veh SRD5A1 (11742802_a_at) / RFU TPSAB1 /// TPSB2 (11721975_s_at) / Fold change /veh TPSAB1 /// TPSB2 (11721975_s_at) / RFU GSTM3 (11746129_a_at) / Fold change /veh GSTM3 (11746129_a_at) / RFU IL23R (11737362_x_at) / Fold change /veh IL23R (11737362_x_at) / RFU TMEM51 (11727254_a_at) / Fold change /veh TMEM51 (11727254_a_at) / RFU PIWIL2 (11732686_x_at) / Fold change /veh PIWIL2 (11732686_x_at) / RFU ORM1 (11744905_x_at) / Fold change /veh ORM1 (11744905_x_at) / RFU CCDC152 (11743942_at) / Fold change /veh CCDC152 (11743942_at) / RFU ECM1 (11717891_a_at) / Fold change /veh ECM1 (11717891_a_at) / RFU IL23R (11748794_a_at) / Fold change /veh IL23R (11748794_a_at) / RFU TNFAIP8L3 (11732012_x_at) / Fold change /veh TNFAIP8L3 (11732012_x_at) / RFU MBOAT4 (11741988_at) / Fold change /veh MBOAT4 (11741988_at) / RFU 11764193_at / Fold change /veh 11764193_at / RFU TMEM53 (11763286_at) / Fold change /veh TMEM53 (11763286_at) / RFU MAGEB2 (11727129_at) / Fold change /veh MAGEB2 (11727129_at) / RFU TMEM200A (11744735_a_at) / Fold change /veh TMEM200A (11744735_a_at) / RFU CCDC152 (11751479_a_at) / Fold change /veh CCDC152 (11751479_a_at) / RFU FAM211A (11726209_a_at) / Fold change /veh FAM211A (11726209_a_at) / RFU RGS16 (11746705_a_at) / Fold change /veh RGS16 (11746705_a_at) / RFU VCAN (11755009_s_at) / Fold change /veh VCAN (11755009_s_at) / RFU RHOB (11743442_s_at) / Fold change /veh RHOB (11743442_s_at) / RFU RGS16 (11720943_a_at) / Fold change /veh RGS16 (11720943_a_at) / RFU RGS16 (11720944_at) / Fold change /veh RGS16 (11720944_at) / RFU, VPS4B / Fold change vs veh, VPS4B / RFU, CREB1 / Fold change vs veh, CREB1 / RFU, DNAJC13 / Fold change vs veh, DNAJC13 / RFU, GNAQ / Fold change vs veh, GNAQ / RFU, CDK5R1 / Fold change vs veh, CDK5R1 / RFU, ZRANB3 / Fold change vs veh, ZRANB3 / RFU, CUL4A / Fold change vs veh, CUL4A / RFU, CCNY / Fold change vs veh, CCNY / RFU, UFL1 / Fold change vs veh, UFL1 / RFU, COG3 / Fold change vs veh, COG3 / RFU, DIAPH2 / Fold change vs veh, DIAPH2 / RFU, SKA2 / Fold change vs veh, SKA2 / RFU, AFF3 / Fold change vs veh, AFF3 / RFU, LMF1 / Fold change vs veh, LMF1 / RFU, IPO11 / Fold change vs veh, IPO11 / RFU, DFFB / Fold change vs veh, DFFB / RFU, FOXP1 / Fold change vs veh, FOXP1 / RFU, CARD8 / Fold change vs veh, CARD8 / RFU, STRN3 / Fold change vs veh, STRN3 / RFU, ADK / Fold change vs veh, ADK / RFU, RASSF2 / Fold change vs veh, RASSF2 / RFU, WIPF1 / Fold change vs veh, WIPF1 / RFU, LARP1B / Fold change vs veh, LARP1B / RFU, RASA1 / Fold change vs veh, RASA1 / RFU, RB1 / Fold change vs veh, RB1 / RFU, PPFIA1 / Fold change vs veh, PPFIA1 / RFU, MAT2A / Fold change vs veh, MAT2A / RFU, CCT5 / Fold change vs veh, CCT5 / RFU, WDR92 / Fold change vs veh, WDR92 / RFU, CUX1 / Fold change vs veh, CUX1 / RFU, TTC7A / Fold change vs veh, TTC7A / RFU, TMEM135 / Fold change vs veh, TMEM135 / RFU, DEPTOR / Fold change vs veh, DEPTOR / RFU, CPM / Fold change vs veh, CPM / RFU, DNAJB6 / Fold change vs veh, DNAJB6 / RFU, CACNA2D3 / Fold change vs veh, CACNA2D3 / RFU, DTX4 / Fold change vs veh, DTX4 / RFU, TFCP2 / Fold change vs veh, TFCP2 / RFU, GMCL1 /// GMCL1P1 / Fold change vs veh, GMCL1 /// GMCL1P1 / RFU, AEBP2 / Fold change vs veh, AEBP2 / RFU, SNHG1 /// SNORD22 /// SNORD25 /// SNORD26 /// SNORD27 /// SNORD28 /// SNORD29 /// SNORD31 / Fold change vs veh, SNHG1 /// SNORD22 /// SNORD25 /// SNORD26 /// SNORD27 /// SNORD28 /// SNORD29 /// SNORD31 / Fold change (Aza/veh), C12orf56 (ProbeSet 11735607_a_at) / Fold change (ACY-1035/veh), C12orf56 (ProbeSet 11735607_a_at) / Fold change (Aza/veh), FGFR1OP (ProbeSet 11751329_s_at) / Fold change (ACY-1035/veh), FGFR1OP (ProbeSet 11751329_s_at) / Fold change (Aza/veh), VPS36 (ProbeSet 11739960_a_at) / Fold change (ACY-1035/veh), VPS36 (ProbeSet 11739960_a_at) / RFU SYPL1 (11715823_x_at) / Fold change /veh SYPL1 (11715823_x_at) / RFU IGFBP7 (11715501_s_at) / Fold change /veh IGFBP7 (11715501_s_at) / RFU REEP3 (11722064_at) / Fold change /veh REEP3 (11722064_at) / RFU IGLL1 (11728026_x_at) / Fold change /veh IGLL1 (11728026_x_at): dose or concentration left out as unconfirmed
Conditions: MV-4-11 cells, 48 hours

Question: Nc1ncn([C@@H]2O[C@H](CO)[C@@H](O)[C@H]2O)c(=O)n1 [azacitidine] was tested. Which “Fold change /veh SOX15 (11748057_x_at)” value did it give?
Answer: 1.06
